# ChEMBL document CHEMBL5512657, “Design, synthesis and evaluation of a pyrazolo[3,4-d]pyrimidine derivative as a novel and potent TGFβ1R1 inhibitor” (Eur J Med Chem, 2024)
# Tests used:
# [1] = target: T1, TGF-beta receptor type-1 (Mus musculus, UniProt Q64729); assay: Inhibition of ALK5 signaling in mouse NIH3T3 cells transfected with (CAGA)12-luciferase reporter incubated for 18 hrs in presence of TGF-beta1 by dual-luciferase reporter assay; type: cell-based
# T1 sequence (Q64729 whole entry): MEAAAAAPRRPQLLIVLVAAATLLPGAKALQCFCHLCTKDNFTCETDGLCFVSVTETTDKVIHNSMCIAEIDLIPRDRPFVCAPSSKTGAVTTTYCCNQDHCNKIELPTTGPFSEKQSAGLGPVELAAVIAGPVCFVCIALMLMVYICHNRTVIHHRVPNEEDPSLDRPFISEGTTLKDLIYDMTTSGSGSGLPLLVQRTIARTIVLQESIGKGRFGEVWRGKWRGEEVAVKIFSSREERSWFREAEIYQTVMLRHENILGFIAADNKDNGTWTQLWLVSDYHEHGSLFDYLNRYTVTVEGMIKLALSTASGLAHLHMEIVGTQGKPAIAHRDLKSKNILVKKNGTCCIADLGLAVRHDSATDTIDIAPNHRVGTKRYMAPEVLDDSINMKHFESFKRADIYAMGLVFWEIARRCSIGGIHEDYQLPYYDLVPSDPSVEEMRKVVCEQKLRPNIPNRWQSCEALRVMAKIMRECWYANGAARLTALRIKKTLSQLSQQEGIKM
# [2] = target: T2, TGF-beta receptor type-1 (Homo sapiens, UniProt P36897); assay: Inhibition of TGFbetaR1 (unknown origin)
# T2 sequence (P36897 whole entry): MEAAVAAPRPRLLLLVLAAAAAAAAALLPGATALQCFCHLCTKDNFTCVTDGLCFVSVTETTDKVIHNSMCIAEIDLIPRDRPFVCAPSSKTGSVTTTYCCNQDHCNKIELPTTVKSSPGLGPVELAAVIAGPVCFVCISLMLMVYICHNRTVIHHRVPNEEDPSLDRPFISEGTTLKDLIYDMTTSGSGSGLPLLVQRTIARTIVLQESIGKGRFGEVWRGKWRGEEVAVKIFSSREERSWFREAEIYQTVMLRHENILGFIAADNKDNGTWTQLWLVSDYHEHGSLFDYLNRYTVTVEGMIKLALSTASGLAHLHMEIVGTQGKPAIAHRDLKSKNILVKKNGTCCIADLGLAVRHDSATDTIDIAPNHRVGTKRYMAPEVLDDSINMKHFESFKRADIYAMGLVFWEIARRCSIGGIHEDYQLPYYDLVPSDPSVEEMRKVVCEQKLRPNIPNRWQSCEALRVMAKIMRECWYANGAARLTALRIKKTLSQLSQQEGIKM
# [3] = tested on: Panc02; assay: Antitumor activity against mouse Panc02 cells implanted in C57BL/6J mouse model assessed as tumor growth inhibition at 10 mg/kg, ip administered every other day for 24 days relative to control; type: functional; details: Panc02, 576 h, time 24 day, read-out: TGI
# [4] = tested on: PANC-1; assay: Antitumor activity against human PANC-1 xenografted in […] mouse model assessed as tumor growth inhibition at 10 mg/kg, ip administered every other day for 24 days relative to control; type: functional; details: PANC-1, 576 h, time 24 day, read-out: TGI
# [5] = target: T2, TGF-beta receptor type-1; assay: Inhibition of ALK5 (unknown origin) incubated for 2 hrs in presence of ATP by ADP-Glo reagent based luminescence plate reader analysis
# [6] = target: Voltage-gated inwardly rectifying potassium channel KCNH2 (Homo sapiens, UniProt Q12809); assay: Inhibition of human ERG stably expressed in HEK293 cells by manual patch clamp method; type: toxicity, cell-based
# Voltage-gated inwardly rectifying potassium channel KCNH2, sequence (Q12809 whole entry): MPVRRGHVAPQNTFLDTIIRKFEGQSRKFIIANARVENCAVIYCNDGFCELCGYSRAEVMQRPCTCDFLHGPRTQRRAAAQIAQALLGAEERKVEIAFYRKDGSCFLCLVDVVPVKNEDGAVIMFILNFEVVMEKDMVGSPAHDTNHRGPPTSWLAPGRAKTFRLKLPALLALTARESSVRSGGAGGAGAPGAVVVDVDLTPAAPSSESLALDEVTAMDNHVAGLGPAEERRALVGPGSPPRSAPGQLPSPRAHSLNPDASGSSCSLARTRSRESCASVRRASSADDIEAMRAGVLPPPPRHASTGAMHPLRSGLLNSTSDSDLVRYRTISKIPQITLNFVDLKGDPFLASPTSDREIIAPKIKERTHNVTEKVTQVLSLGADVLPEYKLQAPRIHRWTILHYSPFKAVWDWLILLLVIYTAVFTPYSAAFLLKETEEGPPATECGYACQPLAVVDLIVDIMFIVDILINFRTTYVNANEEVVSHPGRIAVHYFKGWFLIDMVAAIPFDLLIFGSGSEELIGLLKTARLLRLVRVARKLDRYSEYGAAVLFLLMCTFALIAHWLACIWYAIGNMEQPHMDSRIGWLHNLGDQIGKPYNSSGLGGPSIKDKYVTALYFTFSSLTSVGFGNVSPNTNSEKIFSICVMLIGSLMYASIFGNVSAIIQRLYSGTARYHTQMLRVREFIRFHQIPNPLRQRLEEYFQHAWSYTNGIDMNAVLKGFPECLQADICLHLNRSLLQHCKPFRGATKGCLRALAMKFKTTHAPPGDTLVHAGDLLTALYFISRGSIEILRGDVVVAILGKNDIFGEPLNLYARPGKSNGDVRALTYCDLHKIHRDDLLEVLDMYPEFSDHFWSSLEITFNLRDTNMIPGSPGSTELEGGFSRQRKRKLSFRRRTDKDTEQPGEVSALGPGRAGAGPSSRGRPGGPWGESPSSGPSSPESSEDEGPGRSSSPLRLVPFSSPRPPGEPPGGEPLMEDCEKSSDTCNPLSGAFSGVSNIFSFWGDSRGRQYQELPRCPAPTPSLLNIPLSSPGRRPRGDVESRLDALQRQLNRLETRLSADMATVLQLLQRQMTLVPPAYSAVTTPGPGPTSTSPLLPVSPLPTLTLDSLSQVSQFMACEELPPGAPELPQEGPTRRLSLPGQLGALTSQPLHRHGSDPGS
# [7] = tested on: Panc02; assay: cells; details: Mus musculus, Panc02, 72 h
# [8] = tested on: PANC-1; assay: cells; details: Homo sapiens, PANC-1, 72 h
# [9] = tested on: 4T1; assay: cells; details: Mus musculus, 4T1, 72 h
# [10] = tested on: MDA-MB-231; assay: cells; details: Homo sapiens, MDA-MB-231, 72 h
# [11] = tested on: HepG2; assay: cells; details: Homo sapiens, HepG2, 72 h
# [12] = tested on: U-251; assay: cells; details: Homo sapiens, U-251, 72 h
# [13] = tested on: Kasumi 1; assay: cells; details: Homo sapiens, Kasumi 1, 72 h
# [14] = tested on: MV4-11; assay: cells; details: Homo sapiens, MV4-11, 72 h
# [15] = in vitro; details: human, MCF-10A cells
# [16] = in vitro; details: human, BEAS-2B cells
# [17] = in vitro; details: human, HEK293T cells
# [18] = in vitro; details: human, L02 cells
SMILES,EC50 [1] [nM],further results
Nc1ncnc2c1c(-c1ccc3[nH]ccc3c1)nn2CCC1CCN(S(=O)(=O)c2cccs2)CC1,607,
CC(C)(C)OC(=O)N1CCC(CCCn2nc(-c3ccc4[nH]ccc4c3)c3c(N)ncnc32)CC1,998,
C#CCCCC(=O)N1CCC(CCn2nc(-c3ccc4[nH]ccc4c3)c3c(N)ncnc32)CC1,465,
COc1ccc(S(=O)(=O)N2CCC(CCn3nc(-c4ccc5[nH]ccc5c4)c4c(N)ncnc43)CC2)c(OC)c1,> 1000,
Nc1ncnc2c1c(-c1ccc3[nH]ccc3c1)nn2CCC1CCN(S(=O)(=O)c2cccc(Cl)c2Cl)CC1,848,
Cc1cccc(-c2nc(C34CCC(C(N)=O)(CC3)CC4)[nH]c2-c2ccc3c(c2)OCO3)n1,,IC50 [2]: 47 nM
CC(C)S(=O)(=O)N1CCC(CCn2nc(-c3ccc4[nH]ccc4c3)c3c(N)ncnc32)CC1,131,
CC(=O)N1CCC(CCn2nc(-c3ccc4nccnc4c3)c3c(N)ncnc32)CC1,> 1000,
CC(=O)N1CCC(CCn2nc(-c3ccc4ncsc4c3)c3c(N)ncnc32)CC1,130,
Nc1ccn([C@@H]2O[C@H](CO)[C@@H](O)C2(F)F)c(=O)n1 [GEMCITABINE],,inhibition in vivo at 10 mg/kg [3]: 92.1%; inhibition in vivo at 10 mg/kg [4]: 82.2%
Nc1ncnc2c1c(-c1ccc3[nH]ccc3c1)nn2CCC1CCN(C(=O)OCc2ccccc2)CC1,> 1000,
Nc1ncnc2c1c(-c1ccc3[nH]ccc3c1)nn2CCC1CCN(S(=O)(=O)c2ccc3ccccc3c2)CC1,971,
Nc1ncnc2c1c(-c1ccc3[nH]ccc3c1)nn2CCC1CCN(C(=O)c2ccccc2)CC1,273,
Nc1ncnc2c1c(-c1ccc3[nH]ccc3c1)nn2CCC1CCN(S(=O)(=O)c2ccccc2F)CC1,339,
CC(C)(C)OC(=O)N1CCC(CCn2nc(-c3ccc4[nH]ccc4c3)c3c(N)ncnc32)CC1,441,
Nc1ncnc2c1c(-c1ccc3[nH]ccc3c1)nn2CCC1CCN(S(=O)(=O)c2ccccc2Cl)CC1,856,
N#Cc1ccc(S(=O)(=O)N2CCC(CCn3nc(-c4ccc5[nH]ccc5c4)c4c(N)ncnc43)CC2)cc1,> 1000,
COc1ccc(S(=O)(=O)N2CCC(CCn3nc(-c4ccc5[nH]ccc5c4)c4c(N)ncnc43)CC2)cc1,132,
CC(=O)N1CCC(CCn2nc(-c3coc4ccccc34)c3c(N)ncnc32)CC1,682,
CCCCS(=O)(=O)N1CCC(CCn2nc(-c3ccc4[nH]ccc4c3)c3c(N)ncnc32)CC1,176,
COc1cc(F)cc(-c2nn(CCC3CCN(C(C)=O)CC3)c3ncnc(N)c23)c1,430,
CCCS(=O)(=O)N1CCC(CCn2nc(-c3ccc4[nH]ccc4c3)c3c(N)ncnc32)CC1,45.9,
CC(=O)N1CCC(CCn2nc(-c3ccc4[nH]c(C)cc4c3)c3c(N)ncnc32)CC1,105,
CC(=O)N1CCC(CCn2nc(-c3cc4cc[nH]c4cc3C)c3c(N)ncnc32)CC1,403,
CC(=O)c1nn(CCC2CCN(C(C)=O)CC2)c2ncnc(N)c12,485,
CC(C)(C)OC(=O)N1CCC(Cn2nc(-c3ccc4[nH]ccc4c3)c3c(N)ncnc32)C1 (centres undefined),363,IC50 [5]: 155 nM
Nc1ncnc2c1c(-c1ccc3[nH]ccc3c1)nn2CCC1CCN(S(=O)(=O)c2cc(F)cc(F)c2)CC1,> 1000,

SMILES,EC50 [1] [nM],further results
CC(C)(C)OC(=O)N1CCCC(Cn2nc(-c3ccc4[nH]ccc4c3)c3c(N)ncnc32)C1 (centres undefined),689,
CC(=O)N1CCC(CCn2nc(-c3ccc4c(ccn4C)c3)c3c(N)ncnc32)CC1,283,
CC(C)(C)OC(=O)N1CC(Cn2nc(-c3ccc4[nH]ccc4c3)c3c(N)ncnc32)C1,750,
CC(=O)N1CCC(CCn2nc(-c3ccc(N)cc3C)c3c(N)ncnc32)CC1,302,
CC(C)(C)C(=O)N1CCC(CCn2nc(-c3ccc4[nH]ccc4c3)c3c(N)ncnc32)CC1,138,
CC(C)(C)OC(=O)N1CCC(Cn2nc(-c3ccc4[nH]ccc4c3)c3c(N)ncnc32)CC1,374,
Nc1ncnc2c1c(-c1ccc3[nH]ccc3c1)nn2CCC1CCNCC1,> 1000,
CC(=O)N1CCC(CCn2nc(-c3ccc4[nH]ccc4c3)c3c(N)ncnc32)CC1,29.6,IC50 [6]: 11700 nM
CC(C)(C)OC(=O)N1CCN(CCn2nc(-c3ccc4[nH]ccc4c3)c3c(N)ncnc32)CC1,488,
CC(=O)N1CCC(CCn2nc(-c3ccc4[nH]cc(C)c4c3)c3c(N)ncnc32)CC1,15.3,IC50 [6]: 9870 nM
Nc1ncnc2c1c(-c1ccc3[nH]ccc3c1)nn2CCC1CCN(S(=O)(=O)C2CC2)CC1,105,
Cc1cccc(-c2nn3c(c2-c2ccnc4ccc(C(N)=O)cc24)CCC3)n1 [GALUNISERTIB],,CC50 [7]: > 20000 nM; CC50 [8]: > 20000 nM; CC50 [9]: > 20000 nM; CC50 [10]: > 20000 nM; CC50 [11]: 5460 nM; CC50 [12]: 17000 nM; CC50 [13]: 3120 nM; CC50 [14]: > 20000 nM; CC50 at 72 h [15]: 19900 nM; CC50 at 72 h [16]: 13000 nM; CC50 at 72 h [17]: > 20000 nM; CC50 at 72 h [18]: 17400 nM
COc1ccccc1C(=O)N1CCC(CCn2nc(-c3ccc4[nH]ccc4c3)c3c(N)ncnc32)CC1,665,
CCS(=O)(=O)N1CCC(CCn2nc(-c3ccc4[nH]ccc4c3)c3c(N)ncnc32)CC1,90.8,
CC(=O)N1CCC(CCn2nc(-c3ccc4[nH]ncc4c3)c3c(N)ncnc32)CC1,295,
Nc1ncnc2c1c(-c1ccc3[nH]ccc3c1)nn2CCC1CCN(S(=O)(=O)c2cccc(Cl)c2)CC1,1320,
CC(=O)Nc1cccc(-c2nn(CCC3CCN(C(C)=O)CC3)c3ncnc(N)c23)c1,> 1000,
Nc1ncnc2c1c(-c1ccc3[nH]ccc3c1)nn2CCC1CCN(S(=O)(=O)c2ccc(C(F)(F)F)cc2)CC1,303,
CC(C)(C)c1ccc(S(=O)(=O)N2CCC(CCn3nc(-c4ccc5[nH]ccc5c4)c4c(N)ncnc43)CC2)cc1,> 1000,
CC(=O)N1CCC(CCn2nc(-c3ccc4c(c3)OCO4)c3c(N)ncnc32)CC1,> 1000,
Nc1ncnc2c1c(-c1ccc3[nH]ccc3c1)nn2-c1ccc2cc[nH]c2c1,525,
CC(=O)N1CCC(CCn2nc(-c3ccc4ncccc4c3)c3c(N)ncnc32)CC1,> 1000,
CC(=O)N1CCC(CCn2nc(-c3ccc4cc[nH]c4c3)c3c(N)ncnc32)CC1,> 1000,
Cc1ccc(S(=O)(=O)N2CCC(CCn3nc(-c4ccc5[nH]ccc5c4)c4c(N)ncnc43)CC2)cc1,348,
Nc1ncnc2c1c(-c1ccc3[nH]ccc3c1)nn2CCC1CCN(S(=O)(=O)c2cccnc2)CC1,> 1000,
Nc1ncnc2c1c(-c1ccc3[nH]ccc3c1)nn2CCC1CCN(S(=O)(=O)c2cc(Cl)ccc2Cl)CC1,> 1000,
Nc1ncnc2c1c(-c1ccc3[nH]ccc3c1)nn2CCC1CCN(S(=O)(=O)c2ccc(Cl)cc2Cl)CC1,> 1000,
